The text below walks through data of patent publication US20050282818A1, “Ubiquitin ligase inhibitors” (Rigel Pharmaceuticals, Inc., priority 2004, published 2005).

Read-outs that look alike come from different tables or passages of the source. Bounds are passed on as bounds.

For one assay, the system named is H1299 cells. The experiment in a line: Cell proliferation PAD assay, H1299. To be noted: Homo sapiens, 48 hours. Type of assay: cell-based. In short, it runs like this: (§1)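 Plate 2,000 cells per well, then add compound after 24 h as duplicate 6.3-fold dilutions, with 10 mM master stock diluted 500-fold on transfer. Grow 48 h at 37 °C in 5% CO2, fix with formamide, stain nuclei with DAPI, and count cells by imaging.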

The next assay relates to A549 cells. The experiment in a line: Cell proliferation PAD assay, A549. Type of assay: cell-based. To be noted: Homo sapiens, 48 hours. In outline:
as §1

In another assay the target is T1, TRAF6/Uev1A/Ubc13 (Homo sapiens, UniProt Q9Y4K3).
T1 sequence (Q9Y4K3 1-522): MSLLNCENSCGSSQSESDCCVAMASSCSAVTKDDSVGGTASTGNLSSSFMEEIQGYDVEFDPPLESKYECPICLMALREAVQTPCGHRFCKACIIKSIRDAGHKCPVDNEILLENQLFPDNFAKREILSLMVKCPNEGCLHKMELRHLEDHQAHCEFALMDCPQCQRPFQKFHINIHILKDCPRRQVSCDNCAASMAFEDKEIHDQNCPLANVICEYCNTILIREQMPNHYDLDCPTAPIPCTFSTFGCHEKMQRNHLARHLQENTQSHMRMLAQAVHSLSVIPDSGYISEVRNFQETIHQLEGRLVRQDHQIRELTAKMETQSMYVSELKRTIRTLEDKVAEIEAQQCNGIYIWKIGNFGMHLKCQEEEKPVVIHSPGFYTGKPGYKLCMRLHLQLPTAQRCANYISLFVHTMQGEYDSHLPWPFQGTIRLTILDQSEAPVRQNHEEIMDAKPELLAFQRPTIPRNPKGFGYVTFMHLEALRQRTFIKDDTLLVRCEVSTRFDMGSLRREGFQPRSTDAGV
The experiment in a line: TRAF6/Uev1A/Ubc13 plate-based ubiquitin ligase assay. Type of assay: biochemical. In short, it runs like this:
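Ligase activity was read as luminescence from anti-Flag/HRP detection of Flag-ubiquitin bound to casein-blocked Ni-plates alongside His-ubiquitin after a 1 h room-temperature reaction. Buffer: 62.5 mM Tris pH 7.5, 6.25 mM MgCl2, 1.0 mM DTT, 2 μM ATP; E1, Uev1a/Ubc13 and TRAF6 added last to start. IC50s derived across compound concentrations.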

The mark [1] stands for this setting: NCI-H1299, 3pt, read-out: H1299 3pt.
The mark [2] stands for this setting: NCI-H1299, 6pt, read-out: H1299 6pt.

Turning to `O=S(=O)(c1c(Cl)ccc2nonc12)N1CCN(c2ncc(C(F)(F)F)cc2Cl)CC1` [compound 179, 5-chloro-4-({4-[3-chloro-5-(trifluoromethyl)pyridin-2-yl]piperazin-1-yl}sulfonyl)-2,1,3-benzoxadiazole], the IC50 in the assay on H1299 cells (setting [1]) was 1 to 20 µM; in the assay on H1299 cells (setting [2]) it was less than 1 µM; in the assay with A549 cells (3pt, read-out: A549 3pt) it was 1 to 20 µM; in the assay with A549 cells (6pt, read-out: A549 6pt), 1 to 20 µM; on TRAF6/Uev1A/Ubc13, 1 to 20 µM.

With `N#Cc1ccccc1N1CCN(S(=O)(=O)c2c(Cl)ccc3nonc23)CC1` [compound 180, 2-{4-[(5-chloro-2,1,3-benzoxadiazol-4-yl)sulfonyl]piperazin-1-yl}benzonitrile], the IC50 in the assay with H1299 cells (setting [1]) was 1 to 20 µM; with H1299 cells (setting [2]) it was no less than 20 µM; in the assay on A549 cells (3pt, read-out: A549 3pt), 1 to 20 µM; in the assay on A549 cells (6pt, read-out: A549 6pt), no less than 20 µM; against TRAF6/Uev1A/Ubc13 it was no less than 20 µM.

In the case of `O=S(=O)(c1c(N2CCN(c3ccc(Cl)c(C(F)(F)F)c3)CC2)ccc2nonc12)N1CCN(c2ccc(Cl)c(C(F)(F)F)c2)CC1` [compound 181, 5-{4-[4-chloro-3-(trifluoromethyl)phenyl]piperazin-1-yl}-4-({4-[4-chloro-3-(trifluoromethyl)phenyl]piperazin-1-yl}sulfonyl)-2,1,3-benzoxadiazole], the IC50 in the assay with H1299 cells (setting [1]) was no less than 20 µM; with H1299 cells (setting [2]) it was no less than 20 µM; in the assay on A549 cells (3pt, read-out: A549 3pt), no less than 20 µM; with A549 cells (6pt, read-out: A549 6pt), 1 to 20 µM; against TRAF6/Uev1A/Ubc13 it was 1 to 20 µM.

As to `O=S(=O)(c1ccc(Cl)c2nonc12)N1CCN(c2ncccn2)CC1` [compound 184, 4-chloro-7-[(4-pyrimidin-2-ylpiperazin-1-yl)sulfonyl]-2,1,3-benzoxadiazole], the IC50 in the assay with H1299 cells (setting [1]) is 1 to 20 µM; in the assay on H1299 cells (setting [2]), no less than 20 µM; in the assay on A549 cells (3pt, read-out: A549 3pt), 1 to 20 µM; in the assay on A549 cells (6pt, read-out: A549 6pt), no less than 20 µM; at TRAF6/Uev1A/Ubc13, no less than 20 µM.

Regarding `O=S(=O)(c1ccc(Cl)c2nonc12)N1CCN(c2ccccc2)CC1` [compound 186, 4-chloro-7-[(4-phenylpiperazin-1-yl)sulfonyl]-2,1,3-benzoxadiazole], the IC50 in the assay with H1299 cells (setting [1]) is 1 to 20 µM; in the assay with H1299 cells (setting [2]) it was less than 1 µM; with A549 cells (3pt, read-out: A549 3pt), 1 to 20 µM; in the assay with A549 cells (6pt, read-out: A549 6pt) it was 1 to 20 µM; against TRAF6/Uev1A/Ubc13 it was no less than 20 µM.

With `O=c1[nH]c2ccccc2n1C1CCN(S(=O)(=O)c2ccc(Cl)c3nonc23)CC1` [compound 188, 1-{1-[(7-chloro-2,1,3-benzoxadiazol-4-yl)sulfonyl]piperidin-4-yl}-1,3-dihydro-2H-benzimidazol-2-one], the IC50 in the assay on H1299 cells (setting [1]) is 1 to 20 µM; in the assay with H1299 cells (setting [2]), less than 1 µM; in the assay with A549 cells (3pt, read-out: A549 3pt), 1 to 20 µM; in the assay on A549 cells (6pt, read-out: A549 6pt) it was no less than 20 µM; at TRAF6/Uev1A/Ubc13 it was no less than 20 µM.

Regarding `CC1CC(C)CN(S(=O)(=O)c2ccc(Cl)c3nonc23)C1` (stereo not drawn) [compound 192, 4-chloro-7-[(3,5-dimethylpiperidin-1-yl)sulfonyl]-2,1,3-benzoxadiazole], the IC50 in the assay on H1299 cells (setting [1]) is 1 to 20 µM; in the assay on H1299 cells (setting [2]), no less than 20 µM; in the assay on A549 cells (3pt, read-out: A549 3pt), 1 to 20 µM; in the assay with A549 cells (6pt, read-out: A549 6pt) it was no less than 20 µM; against TRAF6/Uev1A/Ubc13, no less than 20 µM.

As for `N#CC1(c2ccccc2)CCN(S(=O)(=O)c2ccc(O)c3nonc23)CC1` [compound 199, 1-[(7-hydroxy-2,1,3-benzoxadiazol-4-yl)sulfonyl]-4-phenylpiperidine-4-carbonitrile], the IC50 was 1 to 20 µM in the assay on H1299 cells (setting [1]); no less than 20 µM in the assay with H1299 cells (setting [2]); 1 to 20 µM in the assay with A549 cells (3pt, read-out: A549 3pt); no less than 20 µM with A549 cells (6pt, read-out: A549 6pt); no less than 20 µM on TRAF6/Uev1A/Ubc13.

Take `O=S(=O)(c1c(Cl)ccc2nonc12)N1CCN(c2cnccn2)CC1` [compound 200, 5-chloro-4-[(4-pyrazin-2-ylpiperazin-1-yl)sulfonyl]-2,1,3-benzoxadiazole]: the IC50 in the assay on H1299 cells (setting [1]) was 1 to 20 µM; in the assay on H1299 cells (setting [2]), less than 1 µM; with A549 cells (3pt, read-out: A549 3pt), 1 to 20 µM; with A549 cells (6pt, read-out: A549 6pt), no less than 20 µM; at TRAF6/Uev1A/Ubc13 it was no less than 20 µM.

As for `CC(=O)N1CCN(S(=O)(=O)c2c(Cl)ccc3nonc23)CC1` [compound 201, 4-[(4-acetylpiperazin-1-yl)sulfonyl]-5-chloro-2,1,3-benzoxadiazole], the IC50 in the assay with H1299 cells (setting [1]) is 1 to 20 µM; in the assay with H1299 cells (setting [2]), less than 1 µM; in the assay on A549 cells (3pt, read-out: A549 3pt), 1 to 20 µM; in the assay with A549 cells (6pt, read-out: A549 6pt), no less than 20 µM; at TRAF6/Uev1A/Ubc13 it was no less than 20 µM.

As to `Cc1cccc(N2CCN(S(=O)(=O)c3c(Cl)ccc4nonc34)CC2)n1` [compound 202, 5-chloro-4-{[4-(6-methylpyridin-2-yl)piperazin-1-yl]sulfonyl}-2,1,3-benzoxadiazole], the IC50 in the assay with H1299 cells (setting [1]) was 1 to 20 µM; with H1299 cells (setting [2]), less than 1 µM; in the assay on A549 cells (3pt, read-out: A549 3pt), 1 to 20 µM; with A549 cells (6pt, read-out: A549 6pt), less than 1 µM; at TRAF6/Uev1A/Ubc13 it was no less than 20 µM.

For the compound `N#Cc1ccc(N2CCN(S(=O)(=O)c3c(Cl)ccc4nonc34)CC2)nc1` [compound 209, 6-{4-[(5-chloro-2,1,3-benzoxadiazol-4-yl)sulfonyl]piperazin-1-yl}nicotinonitrile], the IC50 is 1 to 20 µM in the assay with H1299 cells (setting [1]); less than 1 µM with H1299 cells (setting [2]); 1 to 20 µM in the assay with A549 cells (3pt, read-out: A549 3pt); less than 1 µM in the assay on A549 cells (6pt, read-out: A549 6pt); 1 to 20 µM against TRAF6/Uev1A/Ubc13.

For the compound `CC(=O)N1CCN(S(=O)(=O)c2c(Sc3cccc4cccnc34)ccc3nonc23)CC1` [compound 214, 8-({4-[(4-acetylpiperazin-1-yl)sulfonyl]-2,1,3-benzoxadiazol-5-yl}thio)quinoline], the IC50 in the assay with H1299 cells (setting [1]) was in the range of 1 to 20 µM; with A549 cells (3pt, read-out: A549 3pt), 1 to 20 µM; against TRAF6/Uev1A/Ubc13, 1 to 20 µM.

Take `O=S(=O)(Nc1ccc2cn[nH]c2c1)c1ccc(Cl)c2nonc12` [compound 220, 7-chloro-N-1 H-indazol-6-yl-2,1,3-benzoxadiazole-4-sulfonamide]: the IC50 in the assay with H1299 cells (setting [1]) was 1 to 20 µM; in the assay with H1299 cells (setting [2]), 1 to 20 µM; in the assay on A549 cells (3pt, read-out: A549 3pt), 1 to 20 µM; with A549 cells (6pt, read-out: A549 6pt), 1 to 20 µM; at TRAF6/Uev1A/Ubc13, no less than 20 µM.

For `O=S(=O)(c1ccc(Sc2ccc(O)cc2)c2nonc12)N1CCC(Oc2ncccn2)CC1` [compound 226, 4-[(7-{[4-(pyrimidin-2-yloxy)piperidin-1-yl]sulfonyl}-2,1,3-benzaxadiazol-4-yl)thio]phenol], the IC50 in the assay with H1299 cells (setting [2]) lay within 1 to 20 µM; with A549 cells (6pt, read-out: A549 6pt), 1 to 20 µM; on TRAF6/Uev1A/Ubc13 it was 1 to 20 µM.

For `CC1(C)CCN(S(=O)(=O)c2c(Cl)ccc3nonc23)CC1` [compound 245, 5-chloro-4-[(4,4-dimethylpiperidin-1-yl)sulfonyl]-2,1,3-benzoxadiazole], the IC50 with H1299 cells (setting [2]) is less than 1 µM; in the assay with A549 cells (6pt, read-out: A549 6pt) it was no less than 20 µM; against TRAF6/Uev1A/Ubc13, 1 to 20 µM.

Consider `O=S(=O)(Nc1ccc(F)c(F)c1)c1ccc(Cl)c2nonc12` [compound 262, 7-chloro-N-(3,4-difluorophenyl)-2,1,3-benzoxadiazole-4-sulfonamide], for which the IC50 in the assay on H1299 cells (setting [1]) is 1 to 20 µM; in the assay with A549 cells (3pt, read-out: A549 3pt), 1 to 20 µM; against TRAF6/Uev1A/Ubc13, no less than 20 µM.

`O=S(=O)(Nc1cccc(F)c1)c1ccc(Cl)c2nonc12` [compound 263, 7-chloro-N-(3-fluorophenyl)-2,1,3-benzoxadiazole-4-sulfonamide]: the IC50 in the assay with H1299 cells (setting [1]) was 1 to 20 µM; in the assay with A549 cells (3pt, read-out: A549 3pt) it was 1 to 20 µM; against TRAF6/Uev1A/Ubc13 it was no less than 20 µM.

Consider `Cc1cc(C)cc(-c2cccc3nonc23)c1` [compound 285, 4-(3,5-Dimethylphenyl)-2,1,3-benzoxadiazole], for which the IC50 with H1299 cells (setting [1]) was no less than 20 µM; in the assay on A549 cells (3pt, read-out: A549 3pt), no less than 20 µM; with A549 cells (6pt, read-out: A549 6pt) it was no less than 20 µM; against TRAF6/Uev1A/Ubc13, no less than 20 µM.
